This passage reports IC50 results from patent US9006440B2, “Furopyridine derivatives” (Merck Patent GmbH, priority 2010, dated 2015).

Holding throughout (format): biochemical
One experiment concerns the target T1, Syk (Homo sapiens, UniProt P43405).
T1 construct: purchased BPS Bioscience, CA, USA
The experiment is described as follows: Syk enzyme assay (SYK flash plate assay / Caliper mobility shift). The protocol: The kinase assay is performed either as 384-well Flashplate assay (for e.g. Topcount measurement) or as 384-well Image-Flashplate assay (for LEADseeker measurement).
2.5 nM SYK, 400 nM Biotin-Aha-Aha-KEDPDYEWPSAKK
and 10 μM ATP (spiked with 0.3 μCi 33P-ATP/well) are incubated in a total volume of 50 μl (60 mM Hepes, 10 mM MgCl2, 1.2 mM Dithiothreitol, 0.02% Brij35, 0.1% BSA, pH 7.5) with or without test compound for 1 hours at 30° C. The reaction is stopped with 25 μl 200 mM EDTA. After 30 Min at 30° C. the liquid is removed and each well washed thrice with 100 μl 0.9% sodium chloride solution. Non-specific reaction is determined in presence of 0.1 μM Staurosporine. Radioactivity is measured with Topcount (when using Flashplates) or with LEADseeker (when using Image-Flashplates) respectively. Results (e.g. IC50-values) are calculated with program tools provided by the IT-department (e.g. Symyx Assay Explorer, Genedata Screener). Enzymatic Assays Using the Caliper LifeSciences Technology
(§1) The assays described here are performed on the Caliper Life Sciences LC3000 system This technology provides data on enzyme activity via measurement of the relative amounts of phosphorylated or unphosphorylated fluorescently labelled substrate peptide at the end of an enzymatic reaction. These different states of peptide are resolved by applying a potential difference across the sample. The presence of the charged phosphate group on the product (as opposed to the substrate) causes a different peptide mobility between the two peptides. This is visualized by excitation of the fluorescent label on the substrate and product peptides and represented as peaks within the analysis software.
(§2) In order to measure inhibitor activity of kinase inhibitors on this technology, a TTP Mosquito liquid handling instrument is used to place 0.25 ul of the appropriate concentration of inhibitor in 100% DMSO (for a dose response curve calculation) into each well of a 384-well plate. To this reaction components are added to a final volume of 25 ul. The table below indicates the sequences and concentrations for the assays described in this report. Standard components are 1 mM DTT (Sigma, D0632), 1 mM MgCl2 (Sigma, M1028), 100 mM HEPES pH 7.5 (Calbiochem, 391338), 0.015% Brij-35 (Sigma, B4184).
(§3) The reaction is incubated for 90 min at 25 C, and then stopped by the addition of 70 ul of Stop buffer (100 mM HEPES pH 7.5, 0.015% Brij-35, 10 mM EDTA (Sigma, E7889)).
(§4) The plate is read on a Caliper LC 3000 in an Off-Chip mobility shift assay format, on a 12-sipper chip. Unphosphorylated substrate and phosphorylated product peptide resolve as separate peaks allowing direct measurement of percentage of conversion of substrate to product. The percent conversion can be plotted against concentration of inhibitor to produce a sigmoidal dose response curve, from which an IC50 can be calculated using GeneData Condoseo or a similar product.

The next experiment addresses T2, KDR (Homo sapiens, UniProt P35968).
T2 construct: purchased BPS Bioscience, CA, USA
The experiment is described as follows: KDR enzymatic assay (Caliper LifeSciences technology). The protocol:
as §1, §2, §3, §4

For a further experiment, the target named is T3, SRC (Homo sapiens, UniProt P12931).
T3 construct: purchased Carna Bioscience, Kobe, Japan
The experiment can be described thus: Src enzymatic assay (Caliper LifeSciences technology). How it is done:
as §1, §2, §3, §4

In general, IC50 refers to the concentration needed to halve the response being measured.

T3 sequence (P12931 whole entry): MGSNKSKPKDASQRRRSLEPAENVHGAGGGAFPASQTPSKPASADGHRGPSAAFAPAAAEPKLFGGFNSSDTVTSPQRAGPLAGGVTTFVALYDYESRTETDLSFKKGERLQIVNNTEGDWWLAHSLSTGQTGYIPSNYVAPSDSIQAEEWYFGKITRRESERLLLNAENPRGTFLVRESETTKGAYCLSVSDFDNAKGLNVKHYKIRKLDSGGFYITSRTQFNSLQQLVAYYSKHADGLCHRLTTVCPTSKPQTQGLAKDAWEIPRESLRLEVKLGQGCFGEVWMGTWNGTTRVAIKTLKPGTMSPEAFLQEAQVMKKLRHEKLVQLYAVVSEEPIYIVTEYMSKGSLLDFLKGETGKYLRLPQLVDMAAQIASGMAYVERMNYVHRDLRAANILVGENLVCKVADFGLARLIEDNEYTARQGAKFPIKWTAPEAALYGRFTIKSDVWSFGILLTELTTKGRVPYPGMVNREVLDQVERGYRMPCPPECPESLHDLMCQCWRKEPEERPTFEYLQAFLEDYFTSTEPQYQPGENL
T2 sequence (P35968 20-1356): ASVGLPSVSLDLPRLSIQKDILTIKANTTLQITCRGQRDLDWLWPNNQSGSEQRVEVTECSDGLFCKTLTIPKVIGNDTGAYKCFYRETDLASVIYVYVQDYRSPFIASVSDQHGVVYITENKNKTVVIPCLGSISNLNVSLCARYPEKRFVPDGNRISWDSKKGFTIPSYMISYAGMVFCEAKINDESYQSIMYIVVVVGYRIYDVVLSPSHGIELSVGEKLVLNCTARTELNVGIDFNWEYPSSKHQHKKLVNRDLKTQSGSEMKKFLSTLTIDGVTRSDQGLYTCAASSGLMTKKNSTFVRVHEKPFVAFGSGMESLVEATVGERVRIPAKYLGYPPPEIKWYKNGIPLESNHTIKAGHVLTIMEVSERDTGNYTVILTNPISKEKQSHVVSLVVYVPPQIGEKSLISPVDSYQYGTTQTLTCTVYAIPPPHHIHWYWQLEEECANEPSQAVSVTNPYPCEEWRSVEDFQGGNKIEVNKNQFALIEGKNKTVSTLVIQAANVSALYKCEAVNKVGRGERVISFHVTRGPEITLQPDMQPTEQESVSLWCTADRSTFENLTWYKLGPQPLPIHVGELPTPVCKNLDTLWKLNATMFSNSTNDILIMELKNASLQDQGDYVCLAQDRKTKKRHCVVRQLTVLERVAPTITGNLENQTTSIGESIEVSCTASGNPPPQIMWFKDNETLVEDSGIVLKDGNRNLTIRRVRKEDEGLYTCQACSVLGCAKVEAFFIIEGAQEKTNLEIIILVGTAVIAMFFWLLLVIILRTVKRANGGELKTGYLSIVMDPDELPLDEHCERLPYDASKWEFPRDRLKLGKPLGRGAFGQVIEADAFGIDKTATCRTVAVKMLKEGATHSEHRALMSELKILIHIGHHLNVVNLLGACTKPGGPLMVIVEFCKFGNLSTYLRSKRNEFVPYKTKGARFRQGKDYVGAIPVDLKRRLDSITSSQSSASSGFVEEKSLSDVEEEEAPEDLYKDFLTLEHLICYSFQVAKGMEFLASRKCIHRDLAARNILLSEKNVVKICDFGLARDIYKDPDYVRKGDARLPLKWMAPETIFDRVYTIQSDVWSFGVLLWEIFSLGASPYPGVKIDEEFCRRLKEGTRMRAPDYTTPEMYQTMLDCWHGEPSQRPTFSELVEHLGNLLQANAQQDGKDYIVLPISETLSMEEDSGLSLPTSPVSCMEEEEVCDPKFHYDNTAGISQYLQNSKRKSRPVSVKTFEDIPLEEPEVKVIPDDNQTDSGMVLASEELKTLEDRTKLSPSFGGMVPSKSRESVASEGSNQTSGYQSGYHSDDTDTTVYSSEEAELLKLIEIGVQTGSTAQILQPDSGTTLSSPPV

Take `CNC(=O)c1ccc(-c2ccnc3cc(-c4cc(OC)c(OC)c(OC)c4)oc23)cc1` [Compound A13, N-Methyl-4-[2-(3,4,5-trimethoxy-phenyl)-furo[3,2-b]pyridin-7-yl]-benzamide]: the results for the IC50 on Syk and on KDR were less than 0.3 µM and 0.3 to 3 µM, respectively.
On to `COC(=O)c1cccc(-c2cc3nccc(-c4ccccc4)c3o2)c1` [Compound A19, 3-(7-Phenyl-furo[3,2-b]pyridin-2-yl)-benzoic acid methyl ester], for which the concentration for half-maximal inhibition (IC50) at Syk and on KDR was 3 to 50 µM throughout.
`COc1ccc(-c2ccnc3cc(-c4cc(OC)c(OC)c(OC)c4)oc23)c(OC)c1` [Compound A28, 7-(2,4-Dimethoxy-phenyl)-2-(3,4,5-trimethoxy-phenyl)-furo[3,2-b]pyridine]: the IC50 at Syk was less than 0.3 µM; against KDR, 0.3 to 3 µM.
With `COc1cc(-c2ccnc3cc(-c4cc(OC)c(OC)c(OC)c4)oc23)ccn1` [Compound A29, 7-(2-Methoxy-pyridin-4-yl)-2-(3,4,5-trimethoxy-phenyl)-furo[3,2-b]pyridine], the IC50 at Syk was less than 0.3 µM; on KDR it was 0.3 to 3 µM.
The matching figures for `COc1cc(-c2cc3nccc(-c4cccc(O)c4)c3o2)cc(OC)c1OC` [Compound A36, 3-[2-(3,4,5-Trimethoxy-phenyl)-furo[3,2-b]pyridin-7-yl]-phenol]: less than 0.3 µM and 3 to 50 µM.
The matching figures for `COc1cc(-c2cc3nccc(-c4ccc(CN)cc4)c3o2)cc(OC)c1OC` [Compound A53, 4-[2-(3,4,5-Trimethoxy-phenyl)-furo[3,2-b]pyridin-7-yl]-benzylamine]: less than 0.3 µM and 0.3 to 3 µM.
Turning to `COc1cc(-c2cc3nccc(-c4cccc(C(=O)NC5CCNC5)c4)c3o2)cc(OC)c1OC` (centres unmarked) [Compound A66, N-pyrrolidin-3-yl-3-[2-(3,4,5-trimethoxyphenyl)furo[3,2-b]pyridin-7-yl]benzamide], the 50% inhibitory concentration (IC50) at Syk was less than 0.3 µM; against SRC it was 0.3 to 3 µM.
In the same order, the values of `COc1cc(-c2cc3nccc(-c4cccc(C(=O)N5CCC(N)C5)c4)c3o2)cc(OC)c1OC` (centres unmarked) [Compound A67, (3-aminopyrrolidin-1-yl)-[3-[2-(3,4,5-trimethoxyphenyl)furo[3,2-b]pyridin-7-yl]phenyl]methanone] are 0.3 to 3 µM and 0.3 to 3 µM.
With `COc1cc(-c2cc3nccc(Nc4ccc5c(c4)NC(=O)C(F)(F)O5)c3o2)cc(OC)c1OC` [Compound B10, 2,2-Difluoro-6-[2-(3,4,5-trimethoxy-phenyl)-furo[3,2-b]pyridin-7-ylamino]-4H-benzo[1,4]oxazin-3-one], the IC50 at Syk was 0.3 to 3 µM; against KDR, less than 0.3 µM.
As to `COc1cccc(-c2cc3nccc(-c4cccc(OC)c4)c3o2)c1` [Compound B43, 2,7-Bis-(3-methoxy-phenyl)-furo[3,2-b]pyridine], the half-maximal inhibitory concentration (IC50) on Syk and at KDR was 3 to 50 µM in each case.
On to `CC(C)(O)c1ccc(-c2cc3nccc(-c4ccc(C(C)(C)O)cc4)c3o2)cc1` [Compound B45, 2-(4-{2-[4-(1-Hydroxy-1-methyl-ethyl)-phenyl]-furo[3,2-b]pyridin-7-yl}-phenyl)-propan-2-ol], for which the IC50 on Syk and on KDR was 0.3 to 3 µM throughout.
On to `COc1cc(-c2cc3nccc(-c4cccc(NC(C)=O)c4)c3o2)cc(OC)c1OC` [Compound B72, N-(3-(2-(3,4,5-Trimethoxyphenyl)furo[3,2-b]pyridin-7-yl)phenyl)acetamide], for which the IC50 at Syk fell in the range of 0.3 to 3 µM; against SRC, 3 to 50 µM.
The matching figures for `COc1cc(-c2cc3nccc(-c4cccc(C(=O)NCC5CCCN5)c4)c3o2)cc(OC)c1OC` (centres unmarked) [Compound C11]: less than 0.3 µM and 3 to 50 µM.
Regarding `Cn1cc(-c2ccnc3cc(-c4ccc5c(c4)OCCO5)oc23)cn1` [Compound C17], the IC50 at Syk and on KDR was 0.3 to 3 µM throughout.
In the case of `Cn1cc(-c2ccnc3cc(-c4ccc5[nH]ccc5c4)oc23)cn1` [Compound C18], the IC50 at Syk and on KDR was 0.3 to 3 µM in each case.
For the compound `Cn1cc(-c2ccnc3cc(-c4ccc5cc[nH]c5c4)oc23)cn1` [Compound C19], the IC50 at Syk is less than 0.3 µM; at KDR it was 3 to 50 µM.
The matching figures for `Cn1cc(-c2ccnc3cc(-c4ccc(N5CCOCC5)nc4)oc23)cn1` [Compound C24]: 0.3 to 3 µM and 0.3 to 3 µM.
The matching figures for `O=C(Nc1cccc(-c2cc3nccc(-c4ccccc4)c3o2)c1)[C@@H]1CCCN1` [Compound C31]: 0.3 to 3 µM and 0.3 to 3 µM.
As to `COc1ccc(-c2cc3nccc(-c4cnn(C)c4)c3o2)cc1` [Compound C33], the half-inhibitory concentration (IC50) on Syk and against KDR was 0.3 to 3 µM in each case.
Take `Cn1cc(-c2ccnc3cc(-c4ccc(S(C)(=O)=O)cc4)oc23)cn1` [Compound C34]: the IC50 at Syk is 0.3 to 3 µM; against KDR, 3 to 50 µM.
In the same order, the values of `Cn1cc(-c2ccnc3cc(-c4ccc(OCC(O)CN5CCOCC5)cc4)oc23)cn1` (centres unmarked) [Compound C37] are 0.3 to 3 µM and 0.3 to 3 µM.
In the case of `CC(C)c1cccc(-c2cc3nccc(-c4cnn(C)c4)c3o2)c1` [Compound C45], the figures for the IC50 on Syk and against KDR were 0.3 to 3 µM and 3 to 50 µM, respectively.
On to `Cn1cc(-c2ccnc3cc(-c4ccc(N5CCOCC5)cc4)oc23)cn1` [Compound C49], for which the IC50 on Syk and against KDR was 0.3 to 3 µM each time.
Turning to `Cn1cc(-c2ccnc3cc(-c4ccc(CO)cc4)oc23)cn1` [Compound C59], the IC50 on Syk and against KDR was 0.3 to 3 µM in each case.
Consider `COc1cc(-c2cc3nccc(-c4cnn(C)c4)c3o2)ccc1OCCNC(=O)OC(C)(C)C` [Compound C62], for which the IC50 at Syk and against KDR was 0.3 to 3 µM throughout.
As for `COc1cc(-c2cc3nccc(C4=CCOCC4)c3o2)cc(OC)c1OC` [Compound C68], the IC50 is 0.3 to 3 µM at Syk and less than 0.3 µM at KDR.
In the case of `COc1cc(-c2cc3nccc(-c4ccc5[nH]c(-c6cn[nH]c6)nc5c4)c3o2)cc(OC)c1OC` [Compound C90], on Syk, the IC50 is less than 0.3 µM.
Same read-out and setting: then `CC(=O)c1ccc(-c2cc3nccc(-c4cnn(C)c4)c3o2)cc1` [Compound C95], with 0.3 to 3 µM; and `CN1CCN(c2cc(-c3cc4nccc(-c5ccnc(N6CCN(C)CC6)c5)c4o3)ccn2)CC1` [Compound C96], with 3 to 50 µM.
Turning to `Cn1cc(-c2ccnc3cc(-c4ccc5cnn(C)c5c4)oc23)cn1` [Compound C98], the IC50 was less than 0.3 µM at Syk and 3 to 50 µM against KDR.
As to `Cn1cc(-c2ccnc3cc(-c4ccc(C(C)(C)O)cc4)oc23)cn1` [Compound C100], the concentration for half-maximal inhibition (IC50) at Syk is less than 0.3 µM.
In the case of `COc1cc(-c2cc3nccc(-c4ccc[nH]4)c3o2)cc(OC)c1OC` [Compound C105], the IC50 at Syk is 0.3 to 3 µM.
`COc1cc(-c2cc3nccc(-c4cccc(S(C)(=O)=O)c4)c3o2)cc(OC)c1OC` [Compound C110]: the IC50 at Syk is less than 0.3 µM; against KDR, 0.3 to 3 µM.
For `COc1cc(-c2cc3nccc(-c4c(F)cccc4OC)c3o2)cc(OC)c1OC` [Compound C119], the half-maximal inhibitory concentration (IC50) was less than 0.3 µM at Syk and 3 to 50 µM on SRC.
As for `Cn1cc(-c2ccnc3cc(-c4ccc5cn[nH]c5c4)oc23)cn1` [Compound C133], the half-maximal inhibitory concentration (IC50) at Syk is less than 0.3 µM.
Take `COc1ccc(OC)c(-c2cc3nccc(-c4cnn(C)c4)c3o2)c1` [Compound C140]: the 50% inhibitory concentration (IC50) on Syk was less than 0.3 µM; against SRC, 0.3 to 3 µM.
The matching figures for `COc1cc(-c2cc3nccc(-c4cc(O)cc(C(=O)NCCN)c4)c3o2)cc(OC)c1OC` [Compound C149]: less than 0.3 µM and 0.3 to 3 µM.
The matching figures for `COc1cc(C(=O)N[C@@H]2CCCC[C@@H]2N)cc(-c2ccnc3cc(-c4cc(OC)c(OC)c(OC)c4)oc23)c1` [Compound C170]: less than 0.3 µM and less than 0.3 µM.
As for `Cn1ncc2cc(-c3cc4nccc(-c5cccc(C(=O)N[C@@H]6CCCC[C@@H]6N)c5)c4o3)ccc21` [Compound C175], the half-maximal inhibitory concentration (IC50) on Syk is less than 0.3 µM.
